{"source": "PubChem BioAssay AID1918955", "about": "(Molecular Pharmacology Branch, DTP, NCI, 2023)", "test_system": "NCI/ADR-RES complex spheroid viability", "assay": "Anticancer human tumor NCI/ADR-RES cell line growth inhibition;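 as to all read-outs here: spheroids exposed to compounds for 7 days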;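 as to viability, T/C: 100% = DMSO vehicle treated spheroids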", "settings": "for pIC50: curve of first compound; for viability, T/C: stronger effect = lower value", "how_it_was_run": "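Drug combinations with the LSD1 inhibitor iadademstat tested on tumor cells co-cultured as spheroids with endothelial cells and mesenchymal stem cells. Concentrations descended in half-log increments from clinical Cmax or 10 microM.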", "note": "pIC50: −log10 of the molar value."}
{"compound": "Nc1ncn(C2CC(O)C(CO)S2)c(=O)n1", "note": "(stereo not given) + NC1CCC(NC2CC2c2ccccc2)CC1", "values": [{"measurement": "pIC50", "setting": "second compound 0.1 µM", "result": 7.76}, {"measurement": "pIC50", "setting": "second compound 0.316 µM", "result": 7.90}, {"measurement": "pIC50", "setting": "second compound 1 µM", "result": 7.86}, {"measurement": "pIC50", "setting": "second compound 3.16 µM", "result": 8.05}, {"measurement": "pIC50", "setting": "second compound 10 µM", "result": 8.19}, {"measurement": "viability, T/C", "setting": "second compound 0.1 µM, first compound 0.000949 µM", "result": 99.2, "unit": "%"}, {"measurement": "viability, T/C", "setting": "second compound 0.1 µM, first compound 0.003 µM", "result": 76.1, "unit": "%"}, {"measurement": "viability, T/C", "setting": "second compound 0.1 µM, first compound 0.00949 µM", "result": 60.2, "unit": "%"}, {"measurement": "viability, T/C", "setting": "second compound 0.1 µM, first compound 0.03 µM", "result": 41.5, "unit": "%"}, {"measurement": "viability, T/C", "setting": "second compound 0.1 µM, first compound 0.0949 µM", "result": 25.3, "unit": "%"}, {"measurement": "viability, T/C", "setting": "second compound 0.1 µM, first compound 0.3 µM", "result": 6.6, "unit": "%"}, {"measurement": "viability, T/C", "setting": "second compound 0.316 µM, first compound 0.000949 µM", "result": 106, "unit": "%"}, {"measurement": "viability, T/C", "setting": "second compound 0.316 µM, first compound 0.003 µM", "result": 79.3, "unit": "%"}, {"measurement": "viability, T/C", "setting": "second compound 0.316 µM, first compound 0.00949 µM", "result": 56.2, "unit": "%"}, {"measurement": "viability, T/C", "setting": "second compound 0.316 µM, first compound 0.03 µM", "result": 34, "unit": "%"}, {"measurement": "viability, T/C", "setting": "second compound 0.316 µM, first compound 0.0949 µM", "result": 17.1, "unit": "%"}, {"measurement": "viability, T/C", "setting": "second compound 0.316 µM, first compound 0.3 µM", "result": 6.79, "unit": "%"}, {"measurement": "viability, T/C", "setting": "second compound 1 µM, first compound 0.000949 µM", "result": 99.9, "unit": "%"}, {"measurement": "viability, T/C", "setting": "second compound 1 µM, first compound 0.003 µM", "result": 80.3, "unit": "%"}, {"measurement": "viability, T/C", "setting": "second compound 1 µM, first compound 0.00949 µM", "result": 57, "unit": "%"}, {"measurement": "viability, T/C", "setting": "second compound 1 µM, first compound 0.03 µM", "result": 35, "unit": "%"}, {"measurement": "viability, T/C", "setting": "second compound 1 µM, first compound 0.0949 µM", "result": 18.6, "unit": "%"}, {"measurement": "viability, T/C", "setting": "second compound 1 µM, first compound 0.3 µM", "result": 4.76, "unit": "%"}, {"measurement": "viability, T/C", "setting": "second compound 3.16 µM, first compound 0.000949 µM", "result": 102, "unit": "%"}, {"measurement": "viability, T/C", "setting": "second compound 3.16 µM, first compound 0.003 µM", "result": 66.1, "unit": "%"}, {"measurement": "viability, T/C", "setting": "second compound 3.16 µM, first compound 0.00949 µM", "result": 46.6, "unit": "%"}, {"measurement": "viability, T/C", "setting": "second compound 3.16 µM, first compound 0.03 µM", "result": 37.1, "unit": "%"}, {"measurement": "viability, T/C", "setting": "second compound 3.16 µM, first compound 0.0949 µM", "result": 17.7, "unit": "%"}, {"measurement": "viability, T/C", "setting": "second compound 3.16 µM, first compound 0.3 µM", "result": 4.6, "unit": "%"}, {"measurement": "viability, T/C", "setting": "second compound 10 µM, first compound 0.000949 µM", "result": 85.1, "unit": "%"}, {"measurement": "viability, T/C", "setting": "second compound 10 µM, first compound 0.003 µM", "result": 57.3, "unit": "%"}, {"measurement": "viability, T/C", "setting": "second compound 10 µM, first compound 0.00949 µM", "result": 43.7, "unit": "%"}, {"measurement": "viability, T/C", "setting": "second compound 10 µM, first compound 0.03 µM", "result": 31, "unit": "%"}, {"measurement": "viability, T/C", "setting": "second compound 10 µM, first compound 0.0949 µM", "result": 13.9, "unit": "%"}, {"measurement": "viability, T/C", "setting": "second compound 10 µM, first compound 0.3 µM", "result": 3.33, "unit": "%"}]}
{"compound": "O=C(C=Cn1cnc(-c2cc(C(F)(F)F)cc(C(F)(F)F)c2)n1)NNc1cnccn1", "note": "+ NC1CCC(NC2CC2c2ccccc2)CC1", "values": [{"measurement": "pIC50", "setting": "second compound 0.1 µM", "result": 8.19}, {"measurement": "pIC50", "setting": "second compound 0.316 µM", "result": 8.24}, {"measurement": "pIC50", "setting": "second compound 1 µM", "result": 8.24}, {"measurement": "pIC50", "setting": "second compound 3.16 µM", "result": 8.31}, {"measurement": "pIC50", "setting": "second compound 10 µM", "result": 8.46}, {"measurement": "viability, T/C", "setting": "second compound 0.1 µM, first compound 0.00316 µM", "result": 80.1, "unit": "%"}, {"measurement": "viability, T/C", "setting": "second compound 0.1 µM, first compound 0.01 µM", "result": 29.1, "unit": "%"}, {"measurement": "viability, T/C", "setting": "second compound 0.1 µM, first compound 0.0316 µM", "result": 17.7, "unit": "%"}, {"measurement": "viability, T/C", "setting": "second compound 0.1 µM, first compound 0.1 µM", "result": 13.6, "unit": "%"}, {"measurement": "viability, T/C", "setting": "second compound 0.1 µM, first compound 0.316 µM", "result": 5.76, "unit": "%"}, {"measurement": "viability, T/C", "setting": "second compound 0.1 µM, first compound 1 µM", "result": 2.44, "unit": "%"}, {"measurement": "viability, T/C", "setting": "second compound 0.316 µM, first compound 0.00316 µM", "result": 72.3, "unit": "%"}, {"measurement": "viability, T/C", "setting": "second compound 0.316 µM, first compound 0.01 µM", "result": 26.2, "unit": "%"}, {"measurement": "viability, T/C", "setting": "second compound 0.316 µM, first compound 0.0316 µM", "result": 18.8, "unit": "%"}, {"measurement": "viability, T/C", "setting": "second compound 0.316 µM, first compound 0.1 µM", "result": 21.9, "unit": "%"}, {"measurement": "viability, T/C", "setting": "second compound 0.316 µM, first compound 0.316 µM", "result": 4.73, "unit": "%"}, {"measurement": "viability, T/C", "setting": "second compound 0.316 µM, first compound 1 µM", "result": 1.86, "unit": "%"}, {"measurement": "viability, T/C", "setting": "second compound 1 µM, first compound 0.00316 µM", "result": 72.3, "unit": "%"}, {"measurement": "viability, T/C", "setting": "second compound 1 µM, first compound 0.01 µM", "result": 27.6, "unit": "%"}, {"measurement": "viability, T/C", "setting": "second compound 1 µM, first compound 0.0316 µM", "result": 17.8, "unit": "%"}, {"measurement": "viability, T/C", "setting": "second compound 1 µM, first compound 0.1 µM", "result": 11.6, "unit": "%"}, {"measurement": "viability, T/C", "setting": "second compound 1 µM, first compound 0.316 µM", "result": 8.01, "unit": "%"}, {"measurement": "viability, T/C", "setting": "second compound 1 µM, first compound 1 µM", "result": 3.34, "unit": "%"}, {"measurement": "viability, T/C", "setting": "second compound 3.16 µM, first compound 0.00316 µM", "result": 65, "unit": "%"}, {"measurement": "viability, T/C", "setting": "second compound 3.16 µM, first compound 0.01 µM", "result": 24.6, "unit": "%"}, {"measurement": "viability, T/C", "setting": "second compound 3.16 µM, first compound 0.0316 µM", "result": 15.9, "unit": "%"}, {"measurement": "viability, T/C", "setting": "second compound 3.16 µM, first compound 0.1 µM", "result": 7.79, "unit": "%"}, {"measurement": "viability, T/C", "setting": "second compound 3.16 µM, first compound 0.316 µM", "result": 4.6, "unit": "%"}, {"measurement": "viability, T/C", "setting": "second compound 3.16 µM, first compound 1 µM", "result": 2.43, "unit": "%"}, {"measurement": "viability, T/C", "setting": "second compound 10 µM, first compound 0.00316 µM", "result": 52.9, "unit": "%"}, {"measurement": "viability, T/C", "setting": "second compound 10 µM, first compound 0.01 µM", "result": 20.5, "unit": "%"}, {"measurement": "viability, T/C", "setting": "second compound 10 µM, first compound 0.0316 µM", "result": 9.74, "unit": "%"}, {"measurement": "viability, T/C", "setting": "second compound 10 µM, first compound 0.1 µM", "result": 5.15, "unit": "%"}, {"measurement": "viability, T/C", "setting": "second compound 10 µM, first compound 0.316 µM", "result": 3.07, "unit": "%"}, {"measurement": "viability, T/C", "setting": "second compound 10 µM, first compound 1 µM", "result": 1.56, "unit": "%"}]}
